The test system of one series is retinal bipolar cells. Briefly: AAV-mediated transduction efficiency (mCherry expression) in retinal bipolar cells after intravitreal co-injection of rAAV2 vector with proteasome inhibitor. To be noted: for transduction efficiency in retinal bipolar cells: about one month after virus injection; for expression (fluorescence intensity) of mCherry in bipolar cells: intravitreal. It counts as in vivo, C57BL/6J mice. The text has this: FIG. 1A-B is a series of photographs and a graph depicting the effects of proteasomes on the AAV-mediated expression of transgene (mCherry) in retinal bipolar cells one month after virus injection. FIG. 1A: Representative images of virus transduced retinal bipolar cells. […] DOX: doxorubicin; Acla: Aclarubicin; MG: MG132. FIG. 1B. Statistical data for evaluating the fluorescence intensity of mCherry in bipolar cells one month after virus injection.
FIG. 2A-B is a series of photographs and a graph depicting the effects of DOX on the AAV-mediated expression of transgene (mCherry) in retinal bipolar cells three months after virus injection. FIG. 2A. Representative images of virus transduced retinal bipolar cells three months after virus injection. Virus vectors were co-injected with DOX at different concentrations. FIG. 2B. Statistical data for evaluating the fluorescence intensity of mCherry in bipolar cells three months after virus injection.

Another series has as its system retinal ganglion cells. The series can be described thus: Density of retinal ganglion cells (DAPI staining) after virus injection with and without DOX. In kind it is in vivo, C57BL/6J mice. To be noted: three months after virus injection; 300 μM and 500 μM DOX. The source says:
FIG. 4A-B is a series of photographs and a graph, depicting the effects of DOX on retinal ganglion cells. FIG. 4A. Representative images for evaluating the density of retinal ganglion cells with DAPI staining after virus transduction in bipolar cells with and without DOX at different concentrations. Animals were euthanized one and three months after virus injection. FIG. 4B. Statistical data for evaluating the density of retinal ganglion cells one and three months after virus injection with and without doxorubicin (DOX).

Each structure is given as a SMILES string. Peptide text beside a SMILES is read from it. * marks the point of attachment. Cbz = O=C(OCc1ccccc1)*

With `COc1cccc2c1C(=O)c1c(O)c3c(c(O)c1C2=O)C[C@@](O)(C(=O)CO)C[C@@H]3O[C@H]1C[C@H](N)[C@H](O)[C@H](C)O1` [doxorubicin], the “transduction efficiency in retinal bipolar cells” value in the series on retinal bipolar cells (doxorubicin from 200 μM to 800 μM) is on record as “concentration-dependent increase”. Further, the “optimal concentration to enhance the AAV transduction efficiency” value in the series with retinal bipolar cells (intravitreal co-injection with rAAV2 vector, mice) stood at 500 µM. The “expression (fluorescence intensity) of mCherry in bipolar cells” value is reported as “significantly increased” with retinal bipolar cells (one month after virus injection, co-injection of DOX at concentrations ≧300 μM, mice) and “significantly increased” with retinal bipolar cells (three months after virus injection, co-injection of DOX at concentrations ≧200 μM, mice). Also, the “retinal ganglion cell density vs control” value in the series with retinal ganglion cells is given as “statistically lower than that of control”.
As for `CC[C@@]1(O)C[C@H](O[C@H]2C[C@H](N(C)C)[C@H](O[C@H]3C[C@H](O)[C@H](O[C@H]4CCC(=O)[C@H](C)O4)[C@H](C)O3)[C@H](C)O2)c2c(cc3c(c2O)C(=O)c2c(O)cccc2C3=O)[C@H]1C(=O)OC` [aclarubicin], the “transduction efficiency in retinal bipolar cells” value with retinal bipolar cells (aclarubicin 50 μM, 100 μM) was “not found to enhance the transduction efficiency”.
`CC(C)C[C@@H](C=O)NC(=O)[C@H](CC(C)C)NC(=O)[C@H](CC(C)C)NC(=O)OCc1ccccc1` [MG132] (Cbz-Leu-Leu-Leu-aldehyde): the “transduction efficiency in retinal bipolar cells” value in the series on retinal bipolar cells (MG132 100 μM, 200 μM, 500 μM) is recorded as “not found to enhance the transduction efficiency”.

These data come from patent US20170319669A1, “METHOD OF ENHANCING VIRAL-MEDIATED GENE DELIVERY” (Wayne State University, priority 2016, published 2017).
